Test system: Kv3.4
Assay: TEVC of X. laevis oocytes expressing Kv3.4
Type: cell-based
Settings: for mean inhibition at 0 mV relative to +50 mV: Kv3.4, voltage dependence of block
Text: Kv2.1 mutants were constructed using the QuickChange Multi Site-Directed Mutagenesis Kit (Stratagene, La Jolla, Calif.). […] For oocyte expression, Kv3.4 was in pBF1, Kv4.2 was in pRAT. cRNA transcripts were produced from SacII-linearized (Kv2.1), Mlullinearized (Kv3.4) and Not1-linearized (Kv4.2) DNA templates using the T3 (Kv2.1), SP6 (Kv3.4) and T7 (Kv4.2) mMessage mMachine kits (Ambion, Austin, Tex.). cRNA was quantified by spectrophotometry and its size integrity verified by gel electophoresis. Defolliculated stage V and VI Xenopus laevis oocytes (purchased from Nasco, Grand Island, N.Y.) were injected with 5 ng of cRNA encoding Kv2.1, Kv3.4 or Kv4.2. Chinese Hamster Ovary (CHO) cells were transfected with 0.25 μg Kv2.1 cDNA, 2 μg blank plasmid and 2 μg Green fluorescent Protein in pBOB using Supetfect transfection reagent (Qiagen) 24 hours before whole-cell voltage clamp studies.
Oocytes were bathed in a small-volume Warner oocyte bath and viewed with a Fisher dissection microscope. Bath solution for whole-cell oocyte recordings was (in mM): 96 NaCl, 4 KCl, 0.7 MgCl2, 1 CaCl2, 10 HEPES (pH 7.4); whole-cell oocyte TEVC pipettes were of 0.2-2 M resistance when filled with 3 M KCl. Experiments were performed 24-48 hours after cRNA injection. For assessment of current-voltage relationships in the absence or presence of dabco derivatives, oocytes were held at −80 mV, stepped for 2 seconds at voltages between −80 mV and +60 mV in 20 mV steps (Kv2.1) or between −80 and +50 mV in 10 mV steps (Kv3.4), then held for 500 ms at −40 mV before returning to the holding potential. For assessment of block during wash-in of dabco derivatives at a single voltage, oocytes were held at −80 mV, and repetitively stepped to 0 mV for 2 s with an interpulse interval of 10 s or 60 s as indicated. A range of concentrations of dabco or dabco derivatives were washed in via the bath solution during repetitive single-voltage pulses (after an initial period of 5 pulses with control solution to ensure current stabilization) until equilibrium block was achieved, to establish dose-responses. […] Washout was performed after the highest concentration of blocker was washed in. In cases where washout was achieved, only those recordings in which current returned to within 10% of original current level were used for construction of dose-response curves. […] As controls for this protection analysis, JC638.2a or MTSET were washed in alone until equilibrium block, then washed out.
Data analysis: Current-voltage relationships were obtained by measuring peak current during depolarizing pulses. Inhibition constants for DABCO blockers were calculated after generating a dose response curve by fitting with a logistic dose-response function y=A2+[A1−A2/1+(x/x0)^p], where A1 is the maximum response plateau, A2 is the minimum response plateau, x is drug concentrator, x0 is the IC50, and p the Hill slope. Data analysis was performed using […] 9 (Axon Instruments, Foster City, Calif.) and tabulated in Excel 5.0. Graphs were generated using Origin 6.1. Data are expressed as mean±SEM, with n specifying the number of independent experiments. Statistical significance was assessed by one-way ANOVA with p<0.05 being indicative of significance.

Row | Compound | inhibition of Kv3.4 (1 μM) | inhibition of Kv3.4 (5 mM) | mean inhibition at 0 mV relative to +50 mV | sensitivity of Kv3.4 channels to compound relative to externally-applied TEA (externally applied) | inhibition of Kv3.4 (50 μM) | inhibition of Kv3.4 (250 μM)
1 | CCCCCCCCCCCCCCCC[N+]12CCN(CC1)CC2 [TA279, 1-aza-4-azonia-4-hexadecylbicyclo[2.2.2]octane] | inhibiting | almost complete inhibition | 1.5 fold | 500 fold | – | –
2 | CCCCCCCCCCCC[N+]12CCN(CC1)CC2 [JE188, 1-aza-4-azonia-4-dodecylbicyclo[2.2.2]octane] | – | – | 2 fold | – | significantly inhibited | almost complete inhibition
